Data on 11 compounds can be found in PubChem BioAssay (NCI).

What is called TGI is the concentration at which net growth stops. As usually defined, the GI50 is the concentration that inhibits growth by half.

Molecules are shown by their SMILES.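 Five compound concentrations were applied to cells in 96-well plates for 48 hours; endpoints were derived by simple linear interpolation of the resulting dose-response curve. GI50 = concentration required for 50% inhibition of growth. TGI is the concentration that stops growth completely.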

Among the test systems are SK-MEL-5 melanoma; SN12C renal; SK-OV-3 ovarian; EKVX NSCLC; HOP-92 NSCLC; OVCAR-4 ovarian; CAKI-1 renal; HL-60(TB) leukemia; DU-145 prostate.
Common to all, as to experiment: DTP human tumour cell line panel, 48 h

`O=C(O)CN(c1ccc(F)cc1)S(=O)(=O)c1ccccc1`: the TGI in the experiment on SK-MEL-5 melanoma, in the experiment with SN12C renal, in the experiment with SK-OV-3 ovarian, in the experiment on EKVX NSCLC, in the experiment on HOP-92 NSCLC and in the experiment on OVCAR-4 ovarian was above 100 µM throughout. The concentration for total growth inhibition (TGI) in the experiment on CAKI-1 renal and in the experiment with HL-60(TB) leukemia was above 100 µM in each case.
As to `C=CC(=O)Nc1cccc(Oc2nc(Nc3ccc(N4CCN(C)CC4)cc3OC)ncc2Cl)c1`, the GI50 in the experiment with SK-MEL-5 melanoma was 1.89 µM; in the experiment with SN12C renal, 1.84 µM; in the experiment on SK-OV-3 ovarian it was 0.342 µM; with EKVX NSCLC, 0.363 µM; in the experiment on HOP-92 NSCLC it was 0.743 µM; with OVCAR-4 ovarian, 2.36 µM. The values for the GI50 in the experiment with DU-145 prostate and in the experiment with CAKI-1 renal were 1.59 µM and 0.985 µM, respectively. In addition, the TGI in the experiment on SK-MEL-5 melanoma was 3.92 µM; with SN12C renal, 8.31 µM; in the experiment with SK-OV-3 ovarian, 5.33 µM; with EKVX NSCLC, 3.38 µM; in the experiment with HOP-92 NSCLC, 2.55 µM; in the experiment on OVCAR-4 ovarian it was above 39.4 µM. The figures for the TGI in the experiment with DU-145 prostate and in the experiment on CAKI-1 renal were 6.07 µM and 2.44 µM, respectively.
For `O=C(O)c1c2c(cc3c(=O)cc(-c4ccccc4)oc13)CCCC2`, the TGI with SK-MEL-5 melanoma, in the experiment with SN12C renal, with SK-OV-3 ovarian, in the experiment with EKVX NSCLC, in the experiment with HOP-92 NSCLC and in the experiment on OVCAR-4 ovarian was above 100 µM in each case.
Regarding `Cc1ccc(C(=O)NCCN(C)C)c2nc3ccccc3cc12`, the TGI in the experiment with SK-MEL-5 melanoma is 2.95 µM; in the experiment on SN12C renal it was 10.2 µM; with SK-OV-3 ovarian, above 100 µM; in the experiment on EKVX NSCLC it was 4.76 µM; in the experiment with HOP-92 NSCLC it was above 100 µM; with OVCAR-4 ovarian, above 100 µM. Moreover, the values for the TGI in the experiment with CAKI-1 renal and in the experiment with HL-60(TB) leukemia were 25.6 µM and above 100 µM, respectively.
For the compound `CC(=O)OCCCC#CC#Cc1cccc(=O)o1`, the GI50 with SK-MEL-5 melanoma is 16.1 µM; in the experiment with SN12C renal, 19 µM; in the experiment on SK-OV-3 ovarian, 33.8 µM; in the experiment on EKVX NSCLC, 16.9 µM; in the experiment with HOP-92 NSCLC, 19.8 µM; in the experiment on OVCAR-4 ovarian, 24.9 µM. Further, the GI50 is 11.7 µM in the experiment on DU-145 prostate and 13.6 µM in the experiment on CAKI-1 renal. Moreover, the TGI in the experiment with SK-MEL-5 melanoma was 32.6 µM; with SN12C renal, 39.7 µM; with SK-OV-3 ovarian it was above 100 µM; in the experiment on EKVX NSCLC it was 36.4 µM; in the experiment on HOP-92 NSCLC it was 37.8 µM; with OVCAR-4 ovarian it was 56.1 µM. For the same compound, the results for the TGI with DU-145 prostate and in the experiment with CAKI-1 renal were 26.8 µM and 28.3 µM, respectively.
Take `c1ccc2c(CNCCCCCCCCNCc3cccc4ccccc34)cccc2c1`: the concentration for total growth inhibition (TGI) in the experiment on SK-MEL-5 melanoma came out at 3.32 µM; with SN12C renal, 19.2 µM; with SK-OV-3 ovarian, 30.9 µM; in the experiment on EKVX NSCLC, 18.8 µM; in the experiment with HOP-92 NSCLC, 9.92 µM; with OVCAR-4 ovarian it was 5.28 µM. In addition, the results for the TGI in the experiment with CAKI-1 renal and in the experiment with HL-60(TB) leukemia were 5.01 µM and 4.64 µM, respectively.
Take `COC(=O)CNc1nc(N(C)O)nc(N(C)O)n1`: the GI50 in the experiment with SK-MEL-5 melanoma is 2.2 µM; with SN12C renal it was 9.17 µM; with SK-OV-3 ovarian, 10.3 µM; in the experiment on EKVX NSCLC, 3.31 µM; with HOP-92 NSCLC it was above 100 µM; with OVCAR-4 ovarian, 2.85 µM. Further, the GI50 with DU-145 prostate was 2.15 µM; in the experiment on CAKI-1 renal, 13.1 µM. The TGI in the experiment with SK-MEL-5 melanoma is 15.9 µM; in the experiment on SN12C renal it was above 100 µM; in the experiment with SK-OV-3 ovarian, above 100 µM; in the experiment on EKVX NSCLC it was above 100 µM; with HOP-92 NSCLC it was above 100 µM; in the experiment with OVCAR-4 ovarian, above 100 µM. For the same compound, the TGI is 45 µM in the experiment on DU-145 prostate and above 100 µM with CAKI-1 renal.
In the case of `O=c1cccc2n1CC1CNC[C@H]2C1`, the TGI in the experiment on SK-MEL-5 melanoma, in the experiment with SN12C renal, in the experiment with SK-OV-3 ovarian, in the experiment with EKVX NSCLC, in the experiment with HOP-92 NSCLC and in the experiment with OVCAR-4 ovarian was above 100 µM in each case. For the same compound, the TGI with DU-145 prostate and in the experiment on CAKI-1 renal was above 100 µM throughout.
Take `COC12OCCN(C)C1=CC(=O)C1(C)N=NCC12` (stereo unspecified): the TGI in the experiment on SK-MEL-5 melanoma, in the experiment with SN12C renal, in the experiment with SK-OV-3 ovarian, in the experiment with EKVX NSCLC, with HOP-92 NSCLC and in the experiment with CAKI-1 renal was above 100 µM in each case.
In the case of `CCCCCCCCCCOC(=O)NCCC`, the concentration for total growth inhibition (TGI) in the experiment with SK-MEL-5 melanoma is 52.9 µM; in the experiment with SN12C renal, 86.3 µM; with SK-OV-3 ovarian, above 100 µM; in the experiment on EKVX NSCLC it was 67.7 µM; in the experiment on HOP-92 NSCLC, 48.1 µM; with OVCAR-4 ovarian, above 100 µM. Further, the TGI in the experiment with CAKI-1 renal was above 100 µM; in the experiment with HL-60(TB) leukemia, 32.7 µM.
As to `CC[PH+](CC)CC.CC[PH+](CC)CC.[Au]`, the GI50 is 3.5 µM with SK-MEL-5 melanoma; 16.1 µM in the experiment on SN12C renal; 20.9 µM in the experiment on SK-OV-3 ovarian; 5.83 µM with EKVX NSCLC; 7.43 µM with HOP-92 NSCLC; 12.5 µM in the experiment on OVCAR-4 ovarian. For the same compound, the results for the GI50 with CAKI-1 renal and with HL-60(TB) leukemia were 6.8 µM and 0.345 µM, respectively. Besides, the total growth inhibition concentration (TGI) in the experiment with SK-MEL-5 melanoma amounted to 17.5 µM; in the experiment on SN12C renal it was 31.4 µM; in the experiment with SK-OV-3 ovarian, 35.2 µM; in the experiment with EKVX NSCLC, 11.5 µM; with HOP-92 NSCLC, 15.2 µM; in the experiment with OVCAR-4 ovarian it was 25.1 µM. In addition, the values for the TGI with CAKI-1 renal and with HL-60(TB) leukemia were 13.5 µM and 2.09 µM, respectively.
